pIC50: −log10 of the molar value. Values joined by “and” are separate entries in the source; they are usually repeats but may differ in a detail not shown here. Identical values can stand only once. Like-named read-outs stand apart in the source and are kept apart here.
Experiments:
[1] = Phase 1 first-in-human study, pharmacokinetics in plasma; settings: for Cmax: Average; for percentage of the total drug related material: 4 mg twice at 0 and +10 hours
Procedure: Fourteen normal, healthy volunteers were enrolled in the study. Seven volunteers were treated in the first cohort (3 placebo, 4 received a single dose of 20 mg of 18-MC) and seven in the second cohort (2 placebo, 5 received 8 mg as 4 mg doses of 18-MC administered at 0 and plus 10 hours). For Cohort A, volunteers were monitored in a hospital unit for 2 days (36 hours) days, and were followed up for safety at Days 3, 7 and 30. For Cohort B, volunteers were monitored in a hospital unit for 2 days (36 hours), and were followed up for safety at Days 3, 4, 7 and 30.
This study was designed as a randomized, double-blind, placebo-controlled, single-center Phase 1 first-in-human clinical trial. After screening, volunteers were admitted to the hospital for 36 hours. […] Study article was initiated on Day 1 and volunteers were discharged on Day 2. Cohort A were seen as outpatients on Days 3, 7 and 30. Cohort B were seen as outpatients on Days 3, 4, 7 and 30. 14 subjects were in the study, 5 male and 9 female.
For Cohort A, pharmacokinetic samples were obtained at baseline and at 0.5, 1.0, 2.0, 6.0, 12.0, 24, 36 hours, and 7 days post dose.
Samples underwent two analyses: A research assay (LG/MS/TOF) developed by MicroConstants, Inc., was used to collect the raw data. The first analysis was to quantitate 18-MG and the known metabolites M2, M4 and M5 (using standard curves included in the run). The second analysis compared the peak heights of 18-MG and all the metabolites that could be identified in terms of relative peak height (M1 through M10, and P1-P3).

[2] = target: T1, rat α3β4 nicotinic acetylcholine receptor (nAChR) (Rattus norvegicus, UniProt P04757+P12392); assay: cell-based; settings: for Persistent Inhibition at 1 sec: 1 second after removal of drug; for koff: HEK293
T1 construct: expressed in transfected cells; host or cells: HEK 293 (ATCC CRL1573), transient, Lipofectamine 2000

mouse liver = assay: In vivo comet assay; settings: positive control
Procedure: The comet assay (alkaline single cell gel electrophoresis) is a microgel electrophoretic technique that detects DNA damage in individual cells. DNA damage can be expressed as DNA single strand breaks, double strand breaks, and strand breaks induced by alkali labile sites. […] For this study, the liver was selected as the tissue for evaluation, since this tissue is expected to contain high concentrations of parent drug and metabolites following oral administration.
Male mice were administered oral doses of 0 (vehicle=5% dextrose), 50, 90 and 120 mg/kg/day by gavage according to the table below. Animals in groups 1-4 were dosed on three consecutive days and euthanized 3 to 4 hours after the last dose by CO2 inhalation. A separate group of animals were dosed with methyl methanesulfonate (MMS) which served as a positive control. Immediately following euthanasia, the liver was removed and collected from each animal.
In this study, comet tail migration, % tail DNA (also known as % tail intensity) and tail moment were determined for each animal/treatment group and served as parameters of DNA damage.

[3] = system: isolated rabbit Purkinje fibers; assay: Action potential duration in rabbit cardiac Purkinje fibers; settings: 50 μM, positive control
Procedure: The in vitro effect of 18-MC on the cardiac action potential was evaluated in isolated rabbit Purkinje fibers (FIG. 13). […] Fibers with resting potentials more negative than −80 mV and normal action potential morphology (APD90≥150 ms) were used in the study. Fibers were stimulated continuously at BCL of 1 second for at least 5 minutes. At the end of this period, baseline control APD rate dependence was measured using stimulus pulse trains consisting of approximately 50 pulses at BCL of 1 and 0.5 seconds. After returning to BCL of 1 second, 18-MC (or dl-sotalol) at the lowest concentration was applied for at least 20 minutes to allow equilibration, and the stimulus trains repeated. […] The average responses from the last five recorded action potentials from each stimulus train were analyzed for each test condition.
Electrophysiological recordings were performed with four nominal concentrations of 18-MC (0.3, 1, 3, and 10 μM) added sequentially to four preparations at two stimulus intervals (basic cycle lengths of 1 s and 0.5 s). The effects of 18-MC on action potential parameters were compared to time-matched vehicle control sequences.

[4] = both, human, plasma, po, 4 mg, cohort B, 4 mg PO at 0 and +10 hours
[5] = both, human, plasma, po, 20 mg, cohort A, 20 mg PO single dose
[6] = cohort B, 4 mg PO at 0 and +10 hours

T1 sequence (P04757 26-499): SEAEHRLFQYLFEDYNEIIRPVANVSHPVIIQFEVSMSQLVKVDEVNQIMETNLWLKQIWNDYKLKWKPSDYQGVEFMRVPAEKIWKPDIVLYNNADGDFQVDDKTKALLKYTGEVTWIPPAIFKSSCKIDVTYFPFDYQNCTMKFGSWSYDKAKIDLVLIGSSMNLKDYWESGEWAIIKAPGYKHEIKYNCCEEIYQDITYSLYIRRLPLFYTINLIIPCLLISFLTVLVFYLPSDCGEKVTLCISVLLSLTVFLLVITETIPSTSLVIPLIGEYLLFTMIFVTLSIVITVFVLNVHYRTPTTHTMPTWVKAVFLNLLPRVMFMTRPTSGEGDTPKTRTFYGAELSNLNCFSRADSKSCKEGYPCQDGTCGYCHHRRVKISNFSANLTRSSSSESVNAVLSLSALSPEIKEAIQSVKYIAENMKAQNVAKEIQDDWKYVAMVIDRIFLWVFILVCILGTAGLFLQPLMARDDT
T1 sequence (P12392 21-495): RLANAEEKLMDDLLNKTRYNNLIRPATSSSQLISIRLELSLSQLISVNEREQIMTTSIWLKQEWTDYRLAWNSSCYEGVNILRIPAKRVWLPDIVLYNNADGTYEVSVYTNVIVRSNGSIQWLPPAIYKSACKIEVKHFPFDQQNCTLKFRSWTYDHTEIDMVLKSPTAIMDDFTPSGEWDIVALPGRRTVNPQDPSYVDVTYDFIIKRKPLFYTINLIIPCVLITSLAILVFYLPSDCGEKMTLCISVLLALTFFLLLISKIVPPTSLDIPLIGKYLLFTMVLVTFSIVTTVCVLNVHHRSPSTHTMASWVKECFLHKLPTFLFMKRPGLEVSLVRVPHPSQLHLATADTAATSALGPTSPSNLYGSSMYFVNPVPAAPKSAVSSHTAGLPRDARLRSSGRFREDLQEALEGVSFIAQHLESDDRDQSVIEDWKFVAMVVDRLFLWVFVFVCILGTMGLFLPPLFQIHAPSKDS

Work on `COC(=O)C12CC3CC(CCO)C1N(C=Cc1c2[nH]c2ccccc12)C3` (stereo not drawn) [M2, methyl7-(2-hydroxyethyl)-7,8,9,10-tetrahydro-5H-6,9-methanopyrido[1′,2′:1,2]azepino[4,5-b]indole-6(6aH)-carboxylate] yielded an AUC ([1]; both, human, plasma, po, 4 mg) of 391 ng·h/mL, an AUC(0-inf) ([1]; both, human, plasma, po, 4 mg) of 420 ng·h/mL and a Tmax ([1]; both, human, plasma, po, 4 mg) of 11.8 h. The half-life ([1]; both, human, plasma, po, 4 mg) was 2650 min, the Cmax [1, 4] was 11 ng/mL and the AUC ([1]; both, human, plasma, po, 20 mg) was 563 ng·h/mL. The AUC(0-inf) ([1]; both, human, plasma, po, 20 mg) was 678 ng·h/mL, the Tmax ([1]; both, human, plasma, po, 20 mg) was 1.4 h and the half-life ([1]; both, human, plasma, po, 20 mg) was 864 min. The Cmax [1, 5] was 41 ng/mL, the “AUCall, Max” value ([1]; cohort A, 20 mg PO single dose) was 684 ng·h/mL and the “AUCall, Min” value ([1]; cohort A, 20 mg PO single dose) was 504 ng·h/mL. For the same compound, the “Cmax, Max” value ([1]; cohort A, 20 mg PO single dose) was 62 ng/mL, the “Cmax, Min” value ([1]; cohort A, 20 mg PO single dose) was 27 ng/mL and the “Half-Life, Max” value ([1]; cohort A, 20 mg PO single dose) was 19.0 h. For the same compound, the “Half-Life, Min” value ([1]; cohort A, 20 mg PO single dose) was 11.1 h, the “Tmax, Max” value ([1]; cohort A, 20 mg PO single dose) was 2.0 h and the “Tmax, Min” value ([1]; cohort A, 20 mg PO single dose) was 30 min. For the same compound, the “AUCall, Max” value [1, 6] was 500 ng·h/mL, the “AUCall, Min” value [1, 6] was 287 ng·h/mL and the “Cmax, Max” value [1, 6] was 12 ng/mL. The “Cmax, Min” value [1, 6] was 8 ng/mL, the “Half-Life, Max” value [1, 6] was 97.8 h and the “Half-Life, Min” value [1, 6] was 18.7 h. The “Tmax, Max” value [1, 6] was 12 h and the “Tmax, Min” value [1, 6] was 660 min.
In the case of `COCCC1CC2CN3C=Cc4c([nH]c5ccccc45)C(C(=O)OC)(C2)C13` (stereo not drawn) [M4, methyl7-(2-methoxyethyl)-7,8,9,10-tetrahydro-5H-6,9-methanopyrido[1′,2′:1,2]azepino[4,5-b]indole-6(6aH)-carboxylate], the pIC50 [2] was 5.59, the Ipeak [2] was 23 ± 2% of ACh and 42 ± 3% of ACh and the “Max Inhibition 20-30 μM” value [2] was 88 ± 3%. For the same compound, the “fold less potent than the parent 18-MC HCl” value [2] was “approximately 3.5 fold”, the kon [2] was 4.5 and 4.5 ± 0.4 s−1 and the “reduction of peak ACh-evoked currents” value [2] was 68±2% and 86±2%. The Ipeak ([2]; 30 μM) was 14 ± 2% of ACh, the Iss ([2]; 30 μM) was 40 ± 6% of peak and the τdecay ([2]; 30 μM) was 205 ± 40 ms. For the same compound, the “Persistent Inhibition at 1 sec” value [2] was 21±3%, the koff [2] was 2.5 s⁻¹ and the “percentage of the total drug related material” value (shortened to “percentage”) [1] was “about 40%”. It also gave an AUC ([1]; both, human, plasma, po, 4 mg) of 1650 ng·h/mL, an AUC(0-inf) ([1]; both, human, plasma, po, 4 mg) of 1650 ng·h/mL and a Tmax ([1]; both, human, plasma, po, 4 mg) of 7.3 h. The half-life ([1]; both, human, plasma, po, 4 mg) was 1330 min, the Cmax [1, 4] was 72 ng/mL and the AUC ([1]; both, human, plasma, po, 20 mg) was 2690 ng·h/mL. The AUC(0-inf) ([1]; both, human, plasma, po, 20 mg) was 2800 ng·h/mL, the Tmax ([1]; both, human, plasma, po, 20 mg) was 1.4 h and the half-life ([1]; both, human, plasma, po, 20 mg) was 474 min. For the same compound, the Cmax [1, 5] was 347 ng/mL, the Tmax ([1]; cohort A or B, generally) was “½” and the “AUCall, Max” value ([1]; cohort A, 20 mg PO single dose) was 3925 ng·h/mL. The “AUCall, Min” value ([1]; cohort A, 20 mg PO single dose) was 1897 ng·h/mL, the “Cmax, Max” value ([1]; cohort A, 20 mg PO single dose) was 528 ng/mL and the “Cmax, Min” value ([1]; cohort A, 20 mg PO single dose) was 242 ng/mL. The “Half-Life, Max” value ([1]; cohort A, 20 mg PO single dose) was 9.3 h, the “Half-Life, Min” value ([1]; cohort A, 20 mg PO single dose) was 6.3 h and the “Tmax, Max” value ([1]; cohort A, 20 mg PO single dose) was 2.0 h. The “Tmax, Min” value ([1]; cohort A, 20 mg PO single dose) was 30 min, the “AUCall, Max” value [1, 6] was 1941 ng·h/mL and the “AUCall, Min” value [1, 6] was 1304 ng·h/mL. The “Cmax, Average” value [1, 6] was 72.3 ng/mL, the “Cmax, Max” value [1, 6] was 82 ng/mL and the “Cmax, Min” value [1, 6] was 65 ng/mL. The “Half-Life, Max” value [1, 6] was 34.3 h, the “Half-Life, Min” value [1, 6] was 13.2 h and the “Tmax, Max” value [1, 6] was 12 h. For the same compound, the “Tmax, Min” value [1, 6] was 30 min.
With `COS(C)(=O)=O` [MMS, methyl methanesulfonate, reference compound] the comet parameters (mouse liver) was “produced the expected increases”.
In the case of `CC(C)NCC(O)c1ccc(NS(C)(=O)=O)cc1` (racemic) [dl-Sotalol, reference compound], the APD60 prolongation [3] was ~40% and the APD90 prolongation [3] was ~40%.
With `COCCC1CC2CN3C=Cc4c([nH]c5ccc(O)cc45)C(C(=O)OC)(C2)C13` (stereo not drawn) [M8, methyl 2-hydroxy-7-(2-methoxyethyl)-7,8,9,10-tetrahydro-5H-6,9-methanopyrido[1′,2′:1,2]azepino[4,5-b]indole-6(6aH)-carboxylate] the “percentage” value [1] was “less than 10%”.
In the case of `COC(=O)C12CC3CC(CCO[C@@H]4O[C@H](C(=O)O)[C@@H](O)[C@H](O)[C@H]4O)C1N(C=Cc1c2[nH]c2ccccc12)C3` (stereo partly drawn) [P10, (2S,3S,4S,5R,6R)-3,4,5-trihydroxy-6-(2-(6-(methoxycarbonyl)-6,6a,7,8,9,10-hexahydro-5H-6,9-methanopyrido[1′,2′:1,2]azepino[4,5-b]indol-7-yl)ethoxy)tetrahydro-2H-pyran-2-carboxylic acid], the “percentage” value [1] was “greater than 10%” and the Tmax ([1]; both, human, plasma, oral, 4 mg) was 6 to 10 h.
For `COC(=O)C12CC3CC(CC(=O)O)C1N(CCc1c2[nH]c2ccccc12)C3` (stereo not drawn) [M5, 2-(6-(methoxycarbonyl)-6,6a,7,8,9,10,12,13-octahydro-5H-6,9-methanopyrido[1′,2′:1,2]azepino[4,5-b]indol-7-yl)acetic acid], the pIC50 [2] was 4.24, the Ipeak [2] was 70 ± 4% of ACh and the Iss [2] was 62 ± 4% of peak. For the same compound, the “Max Inhibition 20-30 μM” value [2] was 36 ± 5 %, the “fold less potent than the parent 18-MC HCl” value [2] was ~76 fold and the kon [2] was 2.2 and 2.2 ± 0.4 s−1. The τdecay [2] was 554 ± 32 ms, the “Persistent Inhibition at 1 sec” value [2] was 2±2% and the koff [2] was 6.2 s⁻¹. The AUC ([1]; both, human, plasma, po, 4 mg) was 163 ng·h/mL, the AUC(0-inf) ([1]; both, human, plasma, po, 4 mg) was 185 ng·h/mL and the Tmax ([1]; both, human, plasma, po, 4 mg) was 2.9 h. For the same compound, the half-life ([1]; both, human, plasma, po, 4 mg) was 2810 min, the Cmax [1, 4] was 6 ng/mL and the AUC ([1]; both, human, plasma, po, 20 mg) was 210 ng·h/mL. The AUC(0-inf) ([1]; both, human, plasma, po, 20 mg) was 395 ng·h/mL, the Tmax ([1]; both, human, plasma, po, 20 mg) was 0.8 h and the half-life ([1]; both, human, plasma, po, 20 mg) was 1780 min. For the same compound, the Cmax [1, 5] was 25 ng/mL, the Tmax ([1]; cohort A or B, generally) was “½” and the “AUCall, Max” value ([1]; cohort A, 20 mg PO single dose) was 359 ng·h/mL. For the same compound, the “AUCall, Min” value ([1]; cohort A, 20 mg PO single dose) was 105 ng·h/mL, the “Cmax, Max” value ([1]; cohort A, 20 mg PO single dose) was 38 ng/mL and the “Cmax, Min” value ([1]; cohort A, 20 mg PO single dose) was 12 ng/mL. The “Half-Life, Max” value ([1]; cohort A, 20 mg PO single dose) was 43.4 h, the “Half-Life, Min” value ([1]; cohort A, 20 mg PO single dose) was 16.2 h and the “Tmax, Max” value ([1]; cohort A, 20 mg PO single dose) was 1.0 h. The “Tmax, Min” value ([1]; cohort A, 20 mg PO single dose) was 30 min, the “AUCall, Max” value [1, 6] was 208 ng·h/mL and the “AUCall, Min” value [1, 6] was 104 ng·h/mL. The “Cmax, Max” value [1, 6] was 9 ng/mL, the “Cmax, Min” value [1, 6] was 3 ng/mL and the “Half-Life, Max” value [1, 6] was 74.7 h. The “Half-Life, Min” value [1, 6] was 19.8 h, the “Tmax, Max” value [1, 6] was 11 h and the “Tmax, Min” value [1, 6] was 30 min.

Source: patent US20230201217A1 (priority 2019, published 2023)
